The record followed here is US20250361214A1, “TRIAZINE LIPIDS, LIPID SYNTHESIS, AND METHODS FOR INHIBITING CANONICAL NFKB TRANSCRIPTIONAL ACTIVITY” (University of Kentucky Research Foundation, priority 2022, published 2025).

pIC50: −log10 of the molar value. “Also recorded” adds a separate entry of the source.

A short description of data set [1]: Size and charge determination of nanoparticles (Zetasizer Nano ZS), Example 1. It is filed as physicochemical. The source says:
Size and Charge Determination.

In data set [2] the test system is HeLa cells. As to the kind of experiment: Transfection of luciferase plasmid. The format is cell-based. Particulars: TZ lipid:DOPE 1:1, compared with naked plasmid. The protocol: Transfection of Luciferase Plasmid and Cell Viability. HeLa cells cultured in EMEM (ATCC) supplemented with 10% fetal bovine serum were transferred to a 96 well plate, in quadruplicate, at a density of 20,000 cells per well and incubated for 24 hours at 37° C. in 5% CO2. Liposomes made with a 1:1 ratio of DOPE and TZ lipid were added to 200 ng pGL3 Luciferase Reporter Vector (Promega) at N:P ratios of 2.5, 5 and 10, and incubated at 37° C. for 10 minutes before being diluted in 100 μL of nonsupplemented EMEM and added to the cells. Following a four hour incubation at 37° C., the media was changed, and the cells were incubated for another twenty hours, at which point the cells were lysed with a cell culture lysis reagent at pH 7.8 composed of 25 mM Tris-phosphate buffer, 0.7 g L^−1 1,2-diaminocyclohexane, 10% glycerol, 1% Triton X-100, and 1% protease inhibitor cocktail (Millipore). Total protein content was determined with a bicinchoninic acid assay (G-Biosciences) and luciferase protein expression was quantified by a luciferase assay (Promega). Cell viability was assessed using a Cell Titer Blue assay kit (Promega) based on the manufacturer's instructions. In each of the three independent experiments performed, transfection was compared with cells treated with Lipofectamine 3000 (Thermo), following the manufacturer's instructions, and with DNA treated cells.

Data set [3] has as its system BALB/c mice. Briefly: In vivo hAAT transfection efficiency, serum ELISA and ALT. Set-up: species or system mouse. On the procedure: To assess in vivo hAAT transfection efficiency, mice were administered 200 μL nanoparticles or PBS vehicle i.p. at the doses indicated in the figure legend. Seventy-two hours after injection the mice were bled again for assessment of ALT levels and hAAT expression. hAAT levels were determined via ELISA using serum diluted 1:1 in PBS containing 0.05% casein (PBS-C; 124250; Beantown Chemical), as described previously.^38
In general terms: In an ELISA, binding on a coated surface is turned into a signal by an enzyme label.

In data set [4] the test system is canonical NFKB. Briefly: THP-1-Blue NFKB reporter (SEAP) assay. It is filed as cell-based, human.

Usually pIC50 stands for the IC50 on a negative log10 scale, so that one unit is a factor of ten. Usually IC80 stands for the concentration needed for an effect of 80%. In data set [1] (nanoparticles of pure lipid (Table 1)), `CCCCCCCCCCCCN(CCCCCCCCCCCC)c1nc(NCCCN)nc(NCCCN)n1` [Lipid 3] gave a PDI of 0.41 ± 0.02. Besides, the Size in data set [1] (nanoparticles of pure lipid, 1 mM, 25° C. (Table 1)) came out at 130 ± 2 nm. Further, the Charge in data set [1] (zeta potential, nanoparticles of pure lipid (Table 1)) is 52 ± 3 mV. For the same compound, the “plasmid transfection (luciferase)” value in data set [2] is listed as “better efficacy than the lipids with C18 tails”. In addition, in data set [3] (LP transfection, 4 weeks after treatment), the “hAAT levels at 4 weeks” value is listed as “persisted at 4 weeks after treatment”. Besides, the “average hAAT levels in serum” value in data set [3] (LPs (50% cationic lipid, 50% DOPE), 10,000 ng hAAT plasmid DNA i.p., 72 hours) worked out at 9.5 ng/mL. For the same compound, the pIC50 in data set [4] (Homo sapiens, THP-1-Blue cells stimulated with TNFα, 24 h lipid treatment, read-out: IC50, canonical NFKB inhibition) is 5.40. In data set [4] (Homo sapiens, canonical NFKB inhibition), the IC80 was found to be 10 µM. Besides, in data set [4] (THP-1-Blue cells stimulated with TNFα, listed as TZ3), the “canonical NFKB inhibition” value is recorded as “dose dependent, but not affected by duration of exposure; also recorded: dose dependent inhibition of the canonical NFKB pathway”.
